Measured values taken from publication PMC12263422, “Cryo-EM structure of the human THIK-1 K2P K^+ channel reveals a lower Y gate regulated by lipids and anesthetics” (Nature Structural & Molecular Biology, 2025).
pIC50: −log10 of the molar value. “And” between values parts separate entries of the source, which are not always exact repeats. Identical values can stand only once. Like-named read-outs stand apart in the source and are kept apart here.

Key:
[1] = target: T1, THIK-1 R87D (Homo sapiens, UniProt Q9HB14, R87D); assay: Macroscopic inside-out excised patch recordings, oocytes, THIK-1 R87D mutant; format: cell-based
T1 construct: expressed in transfected cells; host or cells: Xenopus oocytes (mRNA injection)
T1 sequence (Q9HB14 1-408 R87D): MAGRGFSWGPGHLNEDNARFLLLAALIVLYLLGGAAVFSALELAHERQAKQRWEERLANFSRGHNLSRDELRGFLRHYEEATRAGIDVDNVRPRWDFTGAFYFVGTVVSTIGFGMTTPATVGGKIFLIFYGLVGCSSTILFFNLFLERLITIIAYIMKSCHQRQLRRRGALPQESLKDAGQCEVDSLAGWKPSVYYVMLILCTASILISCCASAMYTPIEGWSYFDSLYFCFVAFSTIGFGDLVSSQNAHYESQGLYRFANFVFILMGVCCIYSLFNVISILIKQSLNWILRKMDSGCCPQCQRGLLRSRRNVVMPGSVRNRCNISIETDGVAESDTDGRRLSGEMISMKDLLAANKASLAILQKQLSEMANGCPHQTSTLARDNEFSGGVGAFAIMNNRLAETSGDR
From the text: Human K2P13.1 THIK-1 (GenBank accession number: NM_022054) and human K2P12.1 THIK-2 (NM_022055.1) were used in this study. For functional expression studies, the respective K^+ channel subtype coding sequences were subcloned into the oocyte expression vector pSGEM or the dual-purpose expression vector pFAW[41] and verified by sequencing. All mutant channels were obtained by site-directed mutagenesis and verified by sequencing. To increase surface expression and macroscopic currents, measurements of THIK-2 channels used a mutated ER retention motif, (R11A R12A R14A R15A R16A; THIK-2*)[20]. Vector DNA was linearized with NheI or MluI, and mRNA was synthesized in vitro using the SP6 or T7 AmpliCap Max High Yield Message Maker Kit (Cellscript, USA) or HiScribe T7 ARCA mRNA Kit (New England Biolabs).
Two-electrode voltage–clamp (TEVC) studies were performed in Xenopus oocytes. All animal use conformed to the Guide for the Care and Use of Laboratory Animals (NIH Publication 85–23), and all experiments using Xenopus toads were approved by the local ethics panels. Oocytes were stored at 17 °C in ND96 recording solution composed of (in mM): 96 NaCl, 2 KCl, 1.8 CaCl2, 1 MgCl2, 5 HEPES (pH 7.5 adjusted with NaOH and HCl), supplemented with Na-pyruvate (275 mg L^–1), theophylline (90 mg L^–1) and gentamicin (50 mg L^–1). Oocytes were injected with 1 ng mRNA for WT or mutant channels, and were incubated for 24–48 h at 17 °C. Two-electrode voltage clamp recordings were then performed as previously described[42],[43]. For macroscopic patch–clamp measurements, oocytes were obtained as described above incubated at 17 °C in a solution containing (mM): 54 NaCl, 30 KCl, 2.4 NaHCO3, 0.82 MgSO4 ×7 H2O, 0.41 CaCl2, 0.33 Ca(NO3)2 ×4 H2O and 7.5 TRIS (pH 7.4 adjusted with NaOH and HCl) for 1–4 days before use. Excised patch recordings in inside-out configuration conditions were performed at room temperature. Patch pipettes were made from thick-walled borosilicate glass GB 200TF-8P (Science Products), had resistances of 0.2–0.5 MΩ (tip diameter, 10–25 µm) and filled with a pipette solution (in mM): 120 KCl, 10 HEPES and 3.6 CaCl2 (pH 7.4 adjusted with KOH and HCl). Intracellular bath solutions and compounds were applied to the cytoplasmic side of excised patches for the various K^+ channels through a gravity flow multi-barrel pipette system. The intracellular solution had the following composition (in mM): 120 KCl, 10 HEPES, 2 EGTA and 1 pyrophosphate (pH adjusted with KOH and HCl). Currents were recorded with an EPC10 amplifier (HEKA Electronics) and sampled at 10 kHz or higher, with filtering set to 3 kHz (–3 dB) or higher, as appropriate for sampling rate. For measurements of GPCR activation, whole-cell currents were recorded for THIK-1 in transiently transfected HEK-293 cells. Cells were stimulated by a ramp protocol between −100 and +60 mV (holding potential, −80 mV). The pipette solution was composed of (in mM): 140 KCl, 2 MgCl2, 1 CaCl2, 2.5 EGTA and 10 HEPES (pH 7.3 adjusted with KOH and HCl). The extracellular bath solution had the following composition (in mM): 135 NaCl, 5 KCl, 2 MgCl2, 2 CaCl2, 10 glucose and 10 HEPES pH (pH 7.3 adjusted with NaOH and HCl). Oxotremorine M (Oxo-M) was added to extracellular bath solution to obtain the final concentration. Single-channel currents were recorded with an Axopatch 200B amplifier through a Digidata 1440A digitizer (Molecular Devices). Data were filtered at 2 kHz and recorded at a 200-kHz sampling rate with the program Clampex (Molecular Devices). Pipette solution and bath solution for cell-attached recordings contained (in mM): 140 KCl, 2 MgCl2, 1 CaCl2 and 10 HEPES (pH 7.4 adjusted with KOH and HCl). For inside-out recordings, the bath solution contained (in mM): 140 KCl, 2 MgCl2, 1 CaCl2 and 10 HEPES (pH 7.2 adjusted with KOH and HCl). All experiments were conducted at room temperature. […]

[2] = target: T2, THIK-1 S136A (Homo sapiens, UniProt Q9HB14, S136A); assay: Inside-out excised patch recordings, oocytes, THIK-1 S136A mutant; format: cell-based; conditions: read-out: TPenA IC50
T2 construct: expressed in transfected cells; host or cells: Xenopus oocytes (mRNA injection)
T2 sequence (Q9HB14 whole entry S136A): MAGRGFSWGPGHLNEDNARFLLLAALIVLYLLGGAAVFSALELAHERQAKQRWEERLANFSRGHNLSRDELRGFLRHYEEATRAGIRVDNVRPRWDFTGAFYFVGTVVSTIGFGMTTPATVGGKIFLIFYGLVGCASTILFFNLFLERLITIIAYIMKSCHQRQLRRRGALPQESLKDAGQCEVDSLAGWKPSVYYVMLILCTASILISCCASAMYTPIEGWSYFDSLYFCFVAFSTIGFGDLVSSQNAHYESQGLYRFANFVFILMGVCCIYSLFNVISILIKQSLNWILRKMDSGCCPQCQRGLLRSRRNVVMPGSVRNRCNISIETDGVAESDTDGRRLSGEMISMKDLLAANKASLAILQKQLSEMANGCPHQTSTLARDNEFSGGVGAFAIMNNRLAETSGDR
From the text: Supplement 41594_2025_1497_MOESM2_ESM.xlsx, sheet "ExtData_Fig_S2c" | column: Normalized currents

Compound | Inhibition (%) ([1]; 3.0 mM halothane, R87D, individual recordings) | inhibition at 3000 µM ([1]; 3.0 mM halothane, R87D, mean) [%] | inhibition at 152 µM ([1]; THIK-1 R87D, 0.152 mM halothane) [%] | inhibition at 304 µM ([1]; THIK-1 R87D, 0.304 mM halothane) [%] | inhibition at 1520 µM ([1]; THIK-1 R87D, 1.52 mM halothane) [%] | inhibition at 15200 µM ([1]; THIK-1 R87D, 15.2 mM halothane) [%] | pIC50 ([2]; individual recordings) | pIC50 ([2]; mean)
FC(F)(F)C(Cl)Br (centres unmarked) [halothane] | 54.110% and 64.133% and 70.295% and 57.409% and 74.945% and 46.769% and 63.754% and 70.637% and 69.367% and 64.901% and 58.344% and 70.045% and 57.366% and 63.096% and 56.800% | 62.8 | 14.3 | 26 | 53.8 | 84.1 | – | –
CCCCC[N+](CCCCC)(CCCCC)CCCCC [TPenA, tetrapentylammonium] | – | – | – | – | – | – | 3.99 and 3.76 and 3.40 and 3.43 and 3.46 and 3.92 and 3.72 | 3.61
